Assays:
[1] = system: L4 stage larvae of Dirofilaria immitis; test: Motility of L4 stage Dirofilaria immitis larvae, 3 days, dose response; type: cell-based; settings: 72 h, read-out: EC50, motility of L4 stage D. immitis, three days at 37° C., 5% CO2, vs DMSO control
[2] = system: Microfilaria of Dirofilaria immitis; test: Motility of Dirofilaria immitis microfilariae in microtiter plate, 3 days, dose response; type: cell-based; settings: 72 h, read-out: EC50, motility of D. immitis microfilaria, three days at 37° C., 5% CO2, vs DMSO control
[3] = system: Haemonchus contortus L1 larvae; test: Haemonchus contortus larval development L1 to L3, 4 days, dose response; settings: 96 h, read-out: EC50, development of H. contortus larvae from L1 to L3
Description: Biological Example 2: Screening Method to Test Activity of Compounds Against Haemonchus contortus

Row | Compound | EC50 [1] | EC50 [2] | EC50 [3]
1 | Cc1cc2c(C(C)(C)C)c(C(=O)N[C@H]3CCOc4ccccc43)cnn2c1-c1cc(F)cc(Cl)c1Cl [Compound A481, 4-tert-butyl-7-(2,3-dichloro-5-fluorophenyl)-N-[(4S)-3,4-dihydro-2H-1-benzopyran-4-yl]-6-methylpyrrolo[1,2-b]pyridazine-3-carboxamide] | < 10 nM | 10 to 100 nM | 10 to 100 nM
2 | Cc1cc2c(C(C)(C)C)c(C(=O)N[C@H]3CCCc4cc(Cl)ccc43)cnn2c1-c1cc(F)cc(Cl)c1Cl [Compound A549] | 100 to 1000 nM | 100 to 1000 nM | 1000 to 10000 nM
3 | CN(C)c1c(C(=O)N[C@H]2CCOc3ccccc32)cnn2c(-c3cc(F)cc(F)c3F)c(Cl)cc12 [Compound A474] | < 10 nM | < 10 nM | 10 to 100 nM
4 | CC(C)(C)c1c(C(=O)N[C@H]2CCOc3ccccc32)cnn2c(-c3cc(F)cc(F)c3F)c(Cl)cc12 [Compound A486] | < 10 nM | < 10 nM | < 10 nM

— patent publication US11999742B2, “Substituted pyrrolo[1,2-b]pyridazines as anthelmintics” (BOEHRINGER INGELHEIM VETMEDICA GMBH, priority 2021, dated 2024)
